In PubChem BioAssay (NCI):
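Compound exposure: 48 hours, 5 concentrations, 96-well plates. TGI is the concentration that stops growth completely.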

tested on: NCI-H23 lung; assay: growth of human tumour cells (NCI), 48 h

Question: Which TGI does the source give for `CCCCC(=O)OC[n+]1cccc(-c2c(COC(=O)NC(C)C)c(COC(=O)NC(C)C)c3n2CCC3)c1` here?
Answer: 98.7 µM

Question: How did the TGI turn out when `CCOC(=O)NC(Nc1ccc(OC(F)(F)F)cc1)(C(F)(F)F)C(F)(F)F` was run?
Answer: > 100 µM

tested on: TK-10 renal; assay: growth of human tumour cells (NCI), 48 h

Question: With `COc1ccc(N2C(=O)C3c4[nH]c5ccccc5c4C4CCC(c5ccccc5)CC4C3C2=O)cc1` (centres undefined) as the compound, how does the TGI read?
Answer: 35.5 µM

Question: How did the TGI turn out when `CC(C)=CC(=O)c1[nH]c2ccccc2c1CC(=O)NCCc1cn(C(c2ccccc2)(c2ccccc2)c2ccccc2)cn1` was run?
Answer: > 100 µM

Question: How did the TGI turn out when `CCCCC(=O)OC[n+]1cccc(-c2c(COC(=O)NC(C)C)c(COC(=O)NC(C)C)c3n2CCC3)c1` was run?
Answer: > 100 µM

Question: How did the TGI turn out when `CCOC(=O)NC(Nc1ccc(OC(F)(F)F)cc1)(C(F)(F)F)C(F)(F)F` was run?
Answer: > 100 µM

tested on: MDA-MB-231 breast; assay: growth of human tumour cells (NCI), 48 h

Question: How did the TGI turn out when `COc1ccc(N2C(=O)C3c4[nH]c5ccccc5c4C4CCC(c5ccccc5)CC4C3C2=O)cc1` (centres undefined) was run?
Answer: 41.5 µM

Question: For `CC(C)=CC(=O)c1[nH]c2ccccc2c1CC(=O)NCCc1cn(C(c2ccccc2)(c2ccccc2)c2ccccc2)cn1`, which TGI is on record?
Answer: 6.36 µM

Question: `CCCCC(=O)OC[n+]1cccc(-c2c(COC(=O)NC(C)C)c(COC(=O)NC(C)C)c3n2CCC3)c1` was tested. Which TGI did it give?
Answer: > 100 µM

Question: How did the TGI turn out when `CCOC(=O)NC(Nc1ccc(OC(F)(F)F)cc1)(C(F)(F)F)C(F)(F)F` was run?
Answer: > 100 µM

tested on: NCI-H522 lung; assay: growth of human tumour cells (NCI), 48 h

Question: Which TGI does the source give for `COc1ccc(N2C(=O)C3c4[nH]c5ccccc5c4C4CCC(c5ccccc5)CC4C3C2=O)cc1` (centres undefined) here?
Answer: > 44 µM

Question: Which TGI does the source give for `CC(C)=CC(=O)c1[nH]c2ccccc2c1CC(=O)NCCc1cn(C(c2ccccc2)(c2ccccc2)c2ccccc2)cn1` here?
Answer: 19.8 µM

Question: `CCCCC(=O)OC[n+]1cccc(-c2c(COC(=O)NC(C)C)c(COC(=O)NC(C)C)c3n2CCC3)c1` was tested. Which TGI did it give?
Answer: 49.4 µM

Question: With `CCOC(=O)NC(Nc1ccc(OC(F)(F)F)cc1)(C(F)(F)F)C(F)(F)F` as the compound, how does the TGI read?
Answer: > 100 µM

tested on: UO-31 renal; assay: growth of human tumour cells (NCI), 48 h

Question: How did the TGI turn out when `COc1ccc(N2C(=O)C3c4[nH]c5ccccc5c4C4CCC(c5ccccc5)CC4C3C2=O)cc1` (centres undefined) was run?
Answer: > 88.2 µM

Question: For `CC(C)=CC(=O)c1[nH]c2ccccc2c1CC(=O)NCCc1cn(C(c2ccccc2)(c2ccccc2)c2ccccc2)cn1`, which TGI is on record?
Answer: > 29.4 µM

Question: Which TGI does the source give for `CCCCC(=O)OC[n+]1cccc(-c2c(COC(=O)NC(C)C)c(COC(=O)NC(C)C)c3n2CCC3)c1` here?
Answer: 71.7 µM

Question: For `CCOC(=O)NC(Nc1ccc(OC(F)(F)F)cc1)(C(F)(F)F)C(F)(F)F`, which TGI is on record?
Answer: > 100 µM

tested on: RXF 393 renal; assay: growth of human tumour cells (NCI), 48 h

Question: For `COc1ccc(N2C(=O)C3c4[nH]c5ccccc5c4C4CCC(c5ccccc5)CC4C3C2=O)cc1` (centres undefined), which TGI is on record?
Answer: 25.6 µM

Question: `CC(C)=CC(=O)c1[nH]c2ccccc2c1CC(=O)NCCc1cn(C(c2ccccc2)(c2ccccc2)c2ccccc2)cn1` was tested. Which TGI did it give?
Answer: 13.5 µM

Question: For `CCCCC(=O)OC[n+]1cccc(-c2c(COC(=O)NC(C)C)c(COC(=O)NC(C)C)c3n2CCC3)c1`, which TGI is on record?
Answer: 55.2 µM

Question: How did the TGI turn out when `CCOC(=O)NC(Nc1ccc(OC(F)(F)F)cc1)(C(F)(F)F)C(F)(F)F` was run?
Answer: > 100 µM

tested on: HOP-62 NSCLC; assay: growth of human tumour cells (NCI), 48 h

Question: With `COc1ccc(N2C(=O)C3c4[nH]c5ccccc5c4C4CCC(c5ccccc5)CC4C3C2=O)cc1` (centres undefined) as the compound, how does the TGI read?
Answer: 27.7 µM

Question: Which TGI does the source give for `CC(C)=CC(=O)c1[nH]c2ccccc2c1CC(=O)NCCc1cn(C(c2ccccc2)(c2ccccc2)c2ccccc2)cn1` here?
Answer: > 100 µM

Question: `CCCCC(=O)OC[n+]1cccc(-c2c(COC(=O)NC(C)C)c(COC(=O)NC(C)C)c3n2CCC3)c1` was tested. Which TGI did it give?
Answer: > 100 µM

Question: `CCOC(=O)NC(Nc1ccc(OC(F)(F)F)cc1)(C(F)(F)F)C(F)(F)F` was tested. Which TGI did it give?
Answer: > 100 µM

tested on: T-47D breast; assay: growth of human tumour cells (NCI), 48 h

Question: For `COc1ccc(N2C(=O)C3c4[nH]c5ccccc5c4C4CCC(c5ccccc5)CC4C3C2=O)cc1` (centres undefined), which TGI is on record?
Answer: > 100 µM

Question: `CC(C)=CC(=O)c1[nH]c2ccccc2c1CC(=O)NCCc1cn(C(c2ccccc2)(c2ccccc2)c2ccccc2)cn1` was tested. Which TGI did it give?
Answer: > 100 µM

Question: `CCCCC(=O)OC[n+]1cccc(-c2c(COC(=O)NC(C)C)c(COC(=O)NC(C)C)c3n2CCC3)c1` was tested. Which TGI did it give?
Answer: > 100 µM

Question: For `CCOC(=O)NC(Nc1ccc(OC(F)(F)F)cc1)(C(F)(F)F)C(F)(F)F`, which TGI is on record?
Answer: > 100 µM

tested on: OVCAR-8 ovarian; assay: growth of human tumour cells (NCI), 48 h

Question: Which TGI does the source give for `COc1ccc(N2C(=O)C3c4[nH]c5ccccc5c4C4CCC(c5ccccc5)CC4C3C2=O)cc1` (centres undefined) here?
Answer: 37.2 µM

Question: Which TGI does the source give for `CC(C)=CC(=O)c1[nH]c2ccccc2c1CC(=O)NCCc1cn(C(c2ccccc2)(c2ccccc2)c2ccccc2)cn1` here?
Answer: > 100 µM

Question: For `CCCCC(=O)OC[n+]1cccc(-c2c(COC(=O)NC(C)C)c(COC(=O)NC(C)C)c3n2CCC3)c1`, which TGI is on record?
Answer: > 100 µM

Question: Which TGI does the source give for `CCOC(=O)NC(Nc1ccc(OC(F)(F)F)cc1)(C(F)(F)F)C(F)(F)F` here?
Answer: > 100 µM

tested on: SF-539 CNS; assay: growth of human tumour cells (NCI), 48 h

Question: `COc1ccc(N2C(=O)C3c4[nH]c5ccccc5c4C4CCC(c5ccccc5)CC4C3C2=O)cc1` (centres undefined) was tested. Which TGI did it give?
Answer: 7.4 µM

Question: With `CC(C)=CC(=O)c1[nH]c2ccccc2c1CC(=O)NCCc1cn(C(c2ccccc2)(c2ccccc2)c2ccccc2)cn1` as the compound, how does the TGI read?
Answer: 5.21 µM

Question: With `CCCCC(=O)OC[n+]1cccc(-c2c(COC(=O)NC(C)C)c(COC(=O)NC(C)C)c3n2CCC3)c1` as the compound, how does the TGI read?
Answer: > 76 µM

Question: Which TGI does the source give for `CCOC(=O)NC(Nc1ccc(OC(F)(F)F)cc1)(C(F)(F)F)C(F)(F)F` here?
Answer: > 100 µM

tested on: 786-0 renal; assay: growth of human tumour cells (NCI), 48 h

Question: For `COc1ccc(N2C(=O)C3c4[nH]c5ccccc5c4C4CCC(c5ccccc5)CC4C3C2=O)cc1` (centres undefined), which TGI is on record?
Answer: > 34.9 µM

Question: How did the TGI turn out when `CC(C)=CC(=O)c1[nH]c2ccccc2c1CC(=O)NCCc1cn(C(c2ccccc2)(c2ccccc2)c2ccccc2)cn1` was run?
Answer: > 100 µM

Question: For `CCCCC(=O)OC[n+]1cccc(-c2c(COC(=O)NC(C)C)c(COC(=O)NC(C)C)c3n2CCC3)c1`, which TGI is on record?
Answer: > 85 µM

Question: For `CCOC(=O)NC(Nc1ccc(OC(F)(F)F)cc1)(C(F)(F)F)C(F)(F)F`, which TGI is on record?
Answer: > 100 µM

tested on: COLO 205 colon; assay: growth of human tumour cells (NCI), 48 h

Question: For `COc1ccc(N2C(=O)C3c4[nH]c5ccccc5c4C4CCC(c5ccccc5)CC4C3C2=O)cc1` (centres undefined), which TGI is on record?
Answer: > 78.2 µM

Question: Which TGI does the source give for `CC(C)=CC(=O)c1[nH]c2ccccc2c1CC(=O)NCCc1cn(C(c2ccccc2)(c2ccccc2)c2ccccc2)cn1` here?
Answer: 3.4 µM

Question: For `CCCCC(=O)OC[n+]1cccc(-c2c(COC(=O)NC(C)C)c(COC(=O)NC(C)C)c3n2CCC3)c1`, which TGI is on record?
Answer: > 100 µM

Question: How did the TGI turn out when `CCOC(=O)NC(Nc1ccc(OC(F)(F)F)cc1)(C(F)(F)F)C(F)(F)F` was run?
Answer: > 100 µM

tested on: OVCAR-3 ovarian; assay: growth of human tumour cells (NCI), 48 h

Question: For `COc1ccc(N2C(=O)C3c4[nH]c5ccccc5c4C4CCC(c5ccccc5)CC4C3C2=O)cc1` (centres undefined), which TGI is on record?
Answer: > 100 µM

Question: For `CC(C)=CC(=O)c1[nH]c2ccccc2c1CC(=O)NCCc1cn(C(c2ccccc2)(c2ccccc2)c2ccccc2)cn1`, which TGI is on record?
Answer: > 100 µM

Question: `CCCCC(=O)OC[n+]1cccc(-c2c(COC(=O)NC(C)C)c(COC(=O)NC(C)C)c3n2CCC3)c1` was tested. Which TGI did it give?
Answer: > 100 µM

Question: With `CCOC(=O)NC(Nc1ccc(OC(F)(F)F)cc1)(C(F)(F)F)C(F)(F)F` as the compound, how does the TGI read?
Answer: > 100 µM

tested on: MDA-N; assay: growth of human tumour cells (NCI), 48 h

Question: With `COc1ccc(N2C(=O)C3c4[nH]c5ccccc5c4C4CCC(c5ccccc5)CC4C3C2=O)cc1` (centres undefined) as the compound, how does the TGI read?
Answer: > 81.5 µM

Question: For `CC(C)=CC(=O)c1[nH]c2ccccc2c1CC(=O)NCCc1cn(C(c2ccccc2)(c2ccccc2)c2ccccc2)cn1`, which TGI is on record?
Answer: 9.75 µM

Question: How did the TGI turn out when `CCCCC(=O)OC[n+]1cccc(-c2c(COC(=O)NC(C)C)c(COC(=O)NC(C)C)c3n2CCC3)c1` was run?
Answer: > 100 µM

Question: How did the TGI turn out when `CCOC(=O)NC(Nc1ccc(OC(F)(F)F)cc1)(C(F)(F)F)C(F)(F)F` was run?
Answer: > 100 µM

tested on: NCI-H460 lung; assay: growth of human tumour cells (NCI), 48 h

Question: With `COc1ccc(N2C(=O)C3c4[nH]c5ccccc5c4C4CCC(c5ccccc5)CC4C3C2=O)cc1` (centres undefined) as the compound, how does the TGI read?
Answer: > 43.1 µM

Question: Which TGI does the source give for `CC(C)=CC(=O)c1[nH]c2ccccc2c1CC(=O)NCCc1cn(C(c2ccccc2)(c2ccccc2)c2ccccc2)cn1` here?
Answer: 10.6 µM

Question: Which TGI does the source give for `CCCCC(=O)OC[n+]1cccc(-c2c(COC(=O)NC(C)C)c(COC(=O)NC(C)C)c3n2CCC3)c1` here?
Answer: > 100 µM

Question: Which TGI does the source give for `CCOC(=O)NC(Nc1ccc(OC(F)(F)F)cc1)(C(F)(F)F)C(F)(F)F` here?
Answer: > 100 µM

tested on: EKVX NSCLC; assay: growth of human tumour cells (NCI), 48 h

Question: How did the TGI turn out when `COc1ccc(N2C(=O)C3c4[nH]c5ccccc5c4C4CCC(c5ccccc5)CC4C3C2=O)cc1` (centres undefined) was run?
Answer: 55.6 µM
